Data reported in patent publication US12371428B2 (Exelixis, Inc., priority 2019, dated 2025).
Counter-ions that a name gives are not always drawn. Like-named read-outs stand apart in the source and are kept apart here.

How the values were obtained:
[1] = molecular target: Human KDR (residues 790-1356) (Homo sapiens (Human), UniProt P35968); assay: Human KDR kinase assay, HTRF KinEase (Example B-2); format: biochemical
Procedure: (§1) Kinase activity and compound inhibition were also investigated using the HTRF® KinEase assay (Cisbio Cat #62TKOPEB) per manufacturer's instructions. In short, compounds were delivered in 300 nL volumes at 10 different concentrations in DMSO (3% final) to empty 384-well assay plates (Corning cat #3824). A mixture of enzyme, […] biotynlated peptide substrate, and buffer in 10 μL volume was added. The assay was started upon the addition of ATP (at Km). The 10 μL reaction was incubated at room temperature. The reaction was stopped upon the addition of detection buffer containing streptavidin-XL665 ([…]) and TK antibody-Eu3+([…]). After a 60 min incubation at room temperature, the fluorescence at 665 nm and 620 nm was read on an Envision microplate reader (Perkin Elmer).
(§2) Kinase activity normalized to DMSO (100% activity) and reference compound at […] and (0% activity) was calculated using the fluorescence ratio […]. IC50 values were calculated by nonlinear regression analysis using a 4-parameter logistic curve fit in ActivityBase XE (IDBS).
(§3) Example B-2: Human KDR (residues 790-1356; CarnaBio, 0.1 ng/well) was also incubated with enzymatic buffer (Cisbio) supplemented with 5 mM MgCl2, 1 mM MnCl2, and 1 mM DTT. The mixture was added to the pre-plated compounds. The reaction was initiated upon addition of ATP at Km (4.0 μM). The reaction was incubated at room temperature for 40 min and stopped upon the addition of SA-XL665 and TK-antibody both diluted in EDTA-containing kinase detection buffer (Cisbio). The kinase activity was calculated as stated above and the IC50 values were reported.

[2] = molecular target: Human MER (residues 528-999) (Homo sapiens (Human), UniProt Q12866); assay: Human Mer kinase assay, HTRF KinEase (Example C-2); format: biochemical
Procedure: as §1, §2
Example C-2: Human MER (residues 528-999; CarnaBio, 1 ng/well) was also incubated with enzymatic buffer (Cisbio) supplemented with 5 mM MgCl2 and 1 mM DTT. The mixture was added to the pre-plated compounds. The reaction was initiated upon addition of ATP at Km (40 μM). The reaction was incubated at room temperature for 60 min and stopped upon the addition of SA-XL665 and TK-antibody both diluted in EDTA-containing kinase detection buffer (Cisbio). The kinase activity was calculated as stated above and the IC50 values were reported.

[3] = molecular target: Met (phospho-Met, HGF-stimulated PC-3 prostate cancer cells) (Homo sapiens (Human), UniProt P08581); assay: Met autophosphorylation ELISA in PC-3 cells (Example F); format: cell-based; conditions: cellular activity; Met autophosphorylation ELISA in PC-3 cells; read-out: c-Met IC50
How it was run: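 Compounds were tested on HGF-stimulated PC-3 cells. After 24 h culture and 3 h serum starvation, cells got compound for 1 h and 100 ng/mL HGF for 10 min, and Met tyrosine phosphorylation was measured by ELISA.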

[4] = molecular target: KDR (phospho-KDR, VEGF165-stimulated HUVEC cells) (Homo sapiens (Human), UniProt P35968); assay: KDR autophosphorylation ELISA in HUVEC cells (Example G); format: cell-based; conditions: cellular activity; KDR autophosphorylation ELISA in HUVEC cells
How it was run: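 IC50 values derive from nonlinear curve fitting of phospho-KDR levels measured by ELISA and interpolated from a phosphoprotein standard. Beforehand, starved HUVECs received compound (0.3% DMSO vehicle) for one hour and were activated with VEGF165 at 100 ng/mL for 5 min.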

[5] = molecular target: Mer (phospho-Mer, MERTK-transfected 293A cells) (Homo sapiens (Human), UniProt Q12866); assay: Mer autophosphorylation ELISA in transient transfected 293A cells (Example H); format: cell-based; conditions: cellular activity; Mer autophosphorylation ELISA in transient transfected 293A cells
How it was run: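 293A cells transiently transfected with human MERTK were treated 1 h in serum-free medium with an 8-point compound dilution (0.3% DMSO final). Lysates were assayed by phospho-Mer sandwich ELISA against a phospho-Mer standard; IC50 came from a 4-parameter logistic fit, normalised to DMSO (100%) and reference-inhibitor (0%) controls.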

[6] = molecular target: Human MET (residues 956-1390) (Homo sapiens (Human), UniProt P08581); assay: Human Met kinase assay, HTRF KinEase (Example D-2); format: biochemical; conditions: read-out: c-Met IC50
Procedure: as §1, §2
as §3, with “D-2:” for “B-2:”, “MET” for “KDR”, “956-1390;” for “790-1356;”, “DTT” for “MnCl2,”, “MnCl2.” for “DTT.”, “The reaction was initiated upon addition of ATP at Km (4.0 μM).” left out

[7] = protocol of Example B-2 (other compounds)
[8] = protocol of Example C-2 (other compounds)
[9] = protocol of Example D-2 (other compounds)

Human MET (residues 956-1390), sequence (P08581 956-1390): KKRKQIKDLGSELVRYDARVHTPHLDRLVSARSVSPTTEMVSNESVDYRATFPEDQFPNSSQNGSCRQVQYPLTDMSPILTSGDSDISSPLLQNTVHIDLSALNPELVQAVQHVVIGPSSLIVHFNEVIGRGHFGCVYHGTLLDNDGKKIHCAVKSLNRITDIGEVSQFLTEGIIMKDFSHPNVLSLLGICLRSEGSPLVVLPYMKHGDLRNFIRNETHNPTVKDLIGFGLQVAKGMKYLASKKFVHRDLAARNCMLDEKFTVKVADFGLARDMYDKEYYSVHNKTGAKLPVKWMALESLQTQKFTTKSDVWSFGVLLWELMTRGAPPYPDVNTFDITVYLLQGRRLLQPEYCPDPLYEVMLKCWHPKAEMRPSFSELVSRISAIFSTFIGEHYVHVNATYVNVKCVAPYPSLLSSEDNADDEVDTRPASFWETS
KDR (phospho-KDR, VEGF165-stimulated HUVEC cells), sequence (P35968 20-1356): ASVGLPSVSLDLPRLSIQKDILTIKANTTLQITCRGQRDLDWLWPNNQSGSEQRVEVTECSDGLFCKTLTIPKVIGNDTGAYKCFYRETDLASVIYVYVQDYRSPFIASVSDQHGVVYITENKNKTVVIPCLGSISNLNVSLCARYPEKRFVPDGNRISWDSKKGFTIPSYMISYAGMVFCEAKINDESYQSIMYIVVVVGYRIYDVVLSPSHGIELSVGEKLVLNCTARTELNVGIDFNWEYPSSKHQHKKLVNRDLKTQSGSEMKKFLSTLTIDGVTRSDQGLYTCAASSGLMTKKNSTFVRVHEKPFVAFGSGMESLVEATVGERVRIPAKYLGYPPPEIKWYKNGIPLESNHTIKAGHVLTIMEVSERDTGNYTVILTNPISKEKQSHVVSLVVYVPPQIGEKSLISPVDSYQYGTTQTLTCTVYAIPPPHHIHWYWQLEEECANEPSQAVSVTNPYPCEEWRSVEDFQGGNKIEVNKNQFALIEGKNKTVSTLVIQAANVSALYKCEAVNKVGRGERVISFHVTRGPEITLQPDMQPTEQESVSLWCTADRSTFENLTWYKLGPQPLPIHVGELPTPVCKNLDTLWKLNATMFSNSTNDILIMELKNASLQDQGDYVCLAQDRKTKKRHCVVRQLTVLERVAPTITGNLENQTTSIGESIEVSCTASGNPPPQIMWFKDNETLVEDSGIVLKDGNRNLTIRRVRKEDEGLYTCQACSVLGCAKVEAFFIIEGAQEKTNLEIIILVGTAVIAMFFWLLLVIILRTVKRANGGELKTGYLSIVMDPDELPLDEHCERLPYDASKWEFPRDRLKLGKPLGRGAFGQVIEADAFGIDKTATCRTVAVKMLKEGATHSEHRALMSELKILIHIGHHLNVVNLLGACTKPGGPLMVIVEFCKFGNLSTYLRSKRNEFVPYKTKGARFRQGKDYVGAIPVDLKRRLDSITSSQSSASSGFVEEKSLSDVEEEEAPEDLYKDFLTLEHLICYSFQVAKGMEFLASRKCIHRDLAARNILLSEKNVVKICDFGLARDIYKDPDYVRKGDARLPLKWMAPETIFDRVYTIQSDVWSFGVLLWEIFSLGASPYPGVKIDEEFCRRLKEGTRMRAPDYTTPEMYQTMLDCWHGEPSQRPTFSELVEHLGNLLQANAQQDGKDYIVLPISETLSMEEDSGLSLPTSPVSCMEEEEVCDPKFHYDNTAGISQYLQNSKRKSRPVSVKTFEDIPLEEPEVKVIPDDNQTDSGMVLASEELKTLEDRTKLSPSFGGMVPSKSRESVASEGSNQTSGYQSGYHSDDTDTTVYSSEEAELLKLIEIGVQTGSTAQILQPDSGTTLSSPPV
Met (phospho-Met, HGF-stimulated PC-3 prostate cancer cells), sequence (P08581 25-1390): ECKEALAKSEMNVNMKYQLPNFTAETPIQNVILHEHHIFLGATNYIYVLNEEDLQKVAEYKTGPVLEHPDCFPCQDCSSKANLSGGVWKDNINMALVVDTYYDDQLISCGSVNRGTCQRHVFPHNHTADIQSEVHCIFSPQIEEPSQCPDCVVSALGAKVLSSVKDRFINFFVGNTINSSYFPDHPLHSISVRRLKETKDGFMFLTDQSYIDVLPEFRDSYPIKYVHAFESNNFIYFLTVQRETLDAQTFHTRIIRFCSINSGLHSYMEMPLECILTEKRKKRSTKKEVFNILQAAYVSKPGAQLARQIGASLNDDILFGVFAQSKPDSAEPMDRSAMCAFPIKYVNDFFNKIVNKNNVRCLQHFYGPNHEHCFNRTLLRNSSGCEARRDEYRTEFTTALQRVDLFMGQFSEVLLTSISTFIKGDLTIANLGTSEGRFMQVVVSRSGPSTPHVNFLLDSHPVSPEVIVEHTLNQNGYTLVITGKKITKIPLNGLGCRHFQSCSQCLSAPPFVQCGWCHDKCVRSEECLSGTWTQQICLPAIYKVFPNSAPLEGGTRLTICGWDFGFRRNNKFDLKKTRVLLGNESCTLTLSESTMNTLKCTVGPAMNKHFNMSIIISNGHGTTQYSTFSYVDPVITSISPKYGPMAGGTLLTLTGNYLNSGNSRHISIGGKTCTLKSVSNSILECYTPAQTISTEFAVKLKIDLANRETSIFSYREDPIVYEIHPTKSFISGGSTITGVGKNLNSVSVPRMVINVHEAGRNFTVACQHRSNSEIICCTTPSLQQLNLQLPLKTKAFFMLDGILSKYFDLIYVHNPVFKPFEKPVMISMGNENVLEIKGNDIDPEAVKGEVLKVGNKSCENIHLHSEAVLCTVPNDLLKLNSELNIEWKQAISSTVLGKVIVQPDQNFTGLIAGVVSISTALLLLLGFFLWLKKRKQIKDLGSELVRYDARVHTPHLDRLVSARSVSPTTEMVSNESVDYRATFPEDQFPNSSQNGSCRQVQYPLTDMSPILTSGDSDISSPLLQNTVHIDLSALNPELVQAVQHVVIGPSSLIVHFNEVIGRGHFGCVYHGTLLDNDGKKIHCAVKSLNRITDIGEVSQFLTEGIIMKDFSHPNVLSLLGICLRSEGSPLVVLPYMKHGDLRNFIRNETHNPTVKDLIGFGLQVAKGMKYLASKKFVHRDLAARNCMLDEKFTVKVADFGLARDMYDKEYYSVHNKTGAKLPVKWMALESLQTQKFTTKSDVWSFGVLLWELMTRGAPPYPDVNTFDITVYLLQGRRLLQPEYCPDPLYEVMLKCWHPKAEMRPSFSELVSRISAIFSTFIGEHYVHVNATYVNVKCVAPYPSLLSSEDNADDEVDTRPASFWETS
Human MER (residues 528-999), sequence (Q12866 528-999): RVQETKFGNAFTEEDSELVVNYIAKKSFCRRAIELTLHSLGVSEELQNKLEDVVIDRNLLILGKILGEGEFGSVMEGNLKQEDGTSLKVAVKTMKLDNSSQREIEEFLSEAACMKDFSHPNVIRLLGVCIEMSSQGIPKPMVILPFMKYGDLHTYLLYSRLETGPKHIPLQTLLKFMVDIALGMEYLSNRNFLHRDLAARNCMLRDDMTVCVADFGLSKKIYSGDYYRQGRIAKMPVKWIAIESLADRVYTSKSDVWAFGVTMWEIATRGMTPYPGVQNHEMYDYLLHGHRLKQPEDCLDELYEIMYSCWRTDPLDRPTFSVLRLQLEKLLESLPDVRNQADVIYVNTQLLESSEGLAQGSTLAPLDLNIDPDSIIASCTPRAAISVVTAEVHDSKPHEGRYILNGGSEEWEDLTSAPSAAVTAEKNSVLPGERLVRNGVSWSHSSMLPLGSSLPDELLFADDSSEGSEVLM
Human KDR (residues 790-1356), sequence (P35968 790-1356): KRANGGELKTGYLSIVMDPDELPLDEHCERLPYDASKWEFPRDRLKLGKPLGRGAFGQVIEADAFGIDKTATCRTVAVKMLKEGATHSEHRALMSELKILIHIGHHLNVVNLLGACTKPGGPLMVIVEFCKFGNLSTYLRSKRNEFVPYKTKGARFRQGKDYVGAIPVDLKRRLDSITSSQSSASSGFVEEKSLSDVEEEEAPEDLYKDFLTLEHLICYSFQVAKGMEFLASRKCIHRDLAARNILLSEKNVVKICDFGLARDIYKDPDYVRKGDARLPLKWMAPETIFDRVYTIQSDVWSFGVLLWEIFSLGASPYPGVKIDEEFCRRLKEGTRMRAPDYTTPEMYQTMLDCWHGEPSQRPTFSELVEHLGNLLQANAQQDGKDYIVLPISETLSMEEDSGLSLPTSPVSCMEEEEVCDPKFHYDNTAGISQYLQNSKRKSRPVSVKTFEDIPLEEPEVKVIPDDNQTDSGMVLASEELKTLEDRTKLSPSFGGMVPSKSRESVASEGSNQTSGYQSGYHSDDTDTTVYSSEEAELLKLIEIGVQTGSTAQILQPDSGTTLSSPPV

COc1cnc2c(Oc3ccc(NC(=O)c4c(C)c(Cl)c(C)n(-c5ccc(F)cc5)c4=O)cc3F)ccnc2c1 [Compound 309, 5-Chloro-N-[3-fluoro-4-[(7-methoxy-1,5-naphthyridin-4-yl)oxy]phenyl]-1-(4-fluorophenyl)-4,6-dimethyl-2-oxopyridine-3-carboxamide]
IC50 [1, 7]: > 300 nM
IC50 [2, 8]: < 100 nM
IC50 [3]: < 100 nM
IC50 [4]: > 300 nM
IC50 [5]: < 100 nM

COc1cnc2c(Oc3ccc(NC(=O)c4nnc(C)c(-c5ccc(F)cc5)c4OC(C)C)cc3F)ccnc2c1 [Compound 567, N-[3-Fluoro-4-[(7-methoxy-1,5-naphthyridin-4-yl)oxy]phenyl]-5-(4-fluorophenyl)-6-methyl-4-propan-2-yloxypyridazine-3-carboxamide]
IC50 ([1]; protocol of Example B-2): < 100 nM
IC50 ([2]; protocol of Example C-2): < 100 nM
IC50 [3]: < 100 nM
IC50 [4]: < 100 nM
IC50 [5]: < 100 nM

Cc1ccn(-c2ccc(F)cc2)c(=O)c1C(=O)Nc1ccc(Oc2ccnc3cccnc23)c(F)c1 [Compound 303, N-[3-Fluoro-4-(1,5-naphthyridin-4-yloxy)phenyl]-1-(4-fluorophenyl)-4-methyl-2-oxopyridine-3-carboxamide]
IC50 [1, 7]: > 300 nM
IC50 [2, 8]: 100 to 300 nM
IC50 [3]: < 100 nM
IC50 [4]: > 300 nM
IC50 [5]: < 100 nM

Cc1ccc(C(=O)Nc2ccc(Oc3ccnc4cccnc34)c(F)c2)c(=O)n1-c1ccc(F)cc1 [Compound 302, N-[3-Fluoro-4-(1,5-naphthyridin-4-yloxy)phenyl]-1-(4-fluorophenyl)-6-methyl-2-oxopyridine-3-carboxamide]
IC50 [1, 7]: > 300 nM
IC50 [2, 8]: < 100 nM
IC50 [3]: < 100 nM
IC50 [4]: 100 to 300 nM
IC50 [5]: < 100 nM

COc1cc2nccc(Oc3ccc(NC(=O)c4ccc(CO)n(-c5ccc(F)cc5)c4=O)cc3F)c2nc1OC [Compound 357, N-[4-[(6,7-dimethoxy-1,5-naphthyridin-4-yl)oxy]-3-fluorophenyl]-1-(4-fluorophenyl)-6-(hydroxymethyl)-2-oxopyridine-3-carboxamide]
IC50 [1, 7]: < 100 nM
IC50 [2, 8]: < 100 nM
IC50 [3]: < 100 nM
IC50 [5]: < 100 nM

COc1cc2nccc(Oc3ccc(NC(=O)c4ccnn(-c5ccc(F)cc5C)c4=O)cc3)c2nc1OC [Compound 528, N-[4-[(6,7-dimethoxy-1,5-naphthyridin-4-yl)oxy]phenyl]-2-(4-fluoro-2-methylphenyl)-3-oxopyridazine-4-carboxamide]
IC50 ([1]; protocol of Example B-2): 100 to 300 nM
IC50 ([2]; protocol of Example C-2): < 100 nM
IC50 [3]: < 100 nM
IC50 [4]: < 100 nM
IC50 [5]: < 100 nM

COc1cnc2c(Oc3ccc(NC(=O)c4ccnn(-c5ccc(F)cc5C)c4=O)cc3F)ccnc2c1 [Compound 529, N-[3-fluoro-4-[(7-methoxy-1,5-naphthyridin-4-yl)oxy]phenyl]-2-(4-fluoro-2-methylphenyl)-3-oxopyridazine-4-carboxamide]
IC50 ([1]; protocol of Example B-2): > 300 nM
IC50 ([2]; protocol of Example C-2): 100 to 300 nM
IC50 [3]: < 100 nM
IC50 [4]: < 100 nM
IC50 [5]: < 100 nM

COc1cc2nccc(Oc3ccc(NC(=O)c4c(OC)c(C)cn(-c5ccc(F)cc5)c4=O)cc3F)c2nc1OC [Compound 372, N-[4-[(6,7-dimethoxy-1,5-naphthyridin-4-yl)oxy]-3-fluorophenyl]-1-(4-fluorophenyl)-4-methoxy-5-methyl-2-oxopyridine-3-carboxamide]
IC50 [1, 7]: < 100 nM
IC50 [2, 8]: < 100 nM
IC50 [3]: < 100 nM
IC50 [4]: < 100 nM
IC50 [5]: < 100 nM

COc1cnc2c(Oc3ccc(NC(=O)c4c5n(cc(-c6ccc(F)cc6)c4=O)CCC5)cc3F)ccnc2c1 [Compound 405, N-[3-fluoro-4-[(7-methoxy-1,5-naphthyridin-4-yl)oxy]phenyl]-6-(4-fluorophenyl)-7-oxo-2,3-dihydro-1H-indolizine-8-carboxamide]
IC50 [2, 8]: < 100 nM
IC50 [6, 9]: < 100 nM
IC50 [3]: < 100 nM
IC50 [4]: > 300 nM
IC50 [5]: < 100 nM

COc1ccc2nccc(Oc3ccc(NC(=O)c4cn(C(C)C)c(C)c(-c5ccc(F)cc5)c4=O)cc3F)c2n1 [Compound 110, N-[3-Fluoro-4-[(6-methoxy-1,5-naphthyridin-4-yl)oxy]phenyl]-5-(4-fluorophenyl)-6-methyl-4-oxo-1-propan-2-ylpyridine-3-carboxamide]
IC50 [2, 8]: < 100 nM
IC50 [6, 9]: < 100 nM
IC50 [3]: < 100 nM
IC50 [4]: > 300 nM
IC50 [5]: < 100 nM

COc1nc2c(Oc3ccc(NC(=O)c4cn(C(C)C)c(C)c(-c5ccc(F)cc5)c4=O)cc3F)ccnc2cc1-c1cccnc1 [Compound 606, N-[3-Fluoro-4-[(6-methoxy-7-pyridin-3-yl-1,5-naphthyridin-4-yl)oxy]phenyl]-5-(4-fluorophenyl)-6-methyl-4-oxo-1-propan-2-ylpyridine-3-carboxamide hydrochloride]
IC50 ([2]; protocol of Example C-2): < 100 nM
IC50 ([6]; protocol of Example D-2): < 100 nM
IC50 [3]: < 100 nM
IC50 [4]: 100 to 300 nM
IC50 [5]: < 100 nM

COc1nc2c(Oc3ccc(NC(=O)c4cn(C(C)C)cc(-c5ccc(F)cc5)c4=O)cc3F)ccnc2cc1-c1cccnc1 [Compound 605, N-[3-Fluoro-4-[(6-methoxy-7-pyridin-3-yl-1,5-naphthyridin-4-yl)oxy]phenyl]-5-(4-fluorophenyl)-4-oxo-1-propan-2-ylpyridine-3-carboxamide hydrochloride]
IC50 ([2]; protocol of Example C-2): < 100 nM
IC50 ([6]; protocol of Example D-2): < 100 nM
IC50 [3]: < 100 nM
IC50 [4]: 100 to 300 nM
IC50 [5]: < 100 nM

COc1cc2nccc(Oc3ccc(NC(=O)c4cnc(C)n(-c5ccc(F)cc5)c4=O)cc3)c2nc1OC [Compound 267, N-[4-[(6,7-Dimethoxy-1,5-naphthyridin-4-yl)oxy]phenyl]-1-(4-fluorophenyl)-2-methyl-6-oxopyrimidine-5-carboxamide]
IC50 [1, 7]: > 300 nM
IC50 [2, 8]: > 300 nM
IC50 [3]: < 100 nM
IC50 [4]: > 300 nM

COc1cnc2c(Oc3ccc(NC(=O)c4cnc(C)c(-c5ccc(F)cc5)c4O)cc3)ccnc2c1 [Compound 147, 5-(4-Fluorophenyl)-4-hydroxy-N-[4-[(7-methoxy-1,5-naphthyridin-4-yl)oxy]phenyl]-6-methylpyridine-3-carboxamide]
IC50 [2, 8]: < 100 nM
IC50 [6, 9]: < 100 nM
IC50 [3]: < 100 nM
IC50 [4]: < 100 nM
IC50 [5]: < 100 nM

COc1nc2c(Oc3ccc(NC(=O)c4cn(C(C)C)c(C)c(-c5ccc(F)cc5)c4=O)cc3F)ccnc2cc1-c1cnn(C(F)F)c1 [Compound 609, N-[4-[[7-[1-(Difluoromethyl)pyrazol-4-yl]-6-methoxy-1,5-naphthyridin-4-yl]oxy]-3-fluorophenyl]-5-(4-fluorophenyl)-6-methyl-4-oxo-1-propan-2-ylpyridine-3-carboxamide]
IC50 ([2]; protocol of Example C-2): < 100 nM
IC50 ([6]; protocol of Example D-2): < 100 nM
IC50 [3]: < 100 nM
IC50 [4]: < 100 nM
IC50 [5]: < 100 nM
